Tested on: CFU-S regeneration in the bone marrow of 1-Gy irradiated mice
Experiment: Stimulation of CFU-S regeneration in bone marrow of 1-Gy irradiated mice (spleen colony count)
Format: in vivo
Procedure: Test animals were irradiated with ^60Co gamma-rays at a dose rate of 0.8 Gy per min. Bone marrow recipients were irradiated with a dose of 8 Gy; donors were irradiated with a dose of […]. The suspension of bone marrow cells of intact animals was irradiated with 1 Gy, 5-10 min prior to injection to lethally irradiated recipients.
Stimulation of CFU-S regeneration in the bone marrow of 1-Gy irradiated mice was studied with different routes of administration of the peptides.
For this purpose, at least 5 mice from each group were killed and their bone marrow was obtained. Cell suspension was prepared and injected to lethally irradiated mice. After 9 days, spleen colonies were counted to determine the CFU-S content in 1-Gy irradiated donors who received the peptide.

[1] = intraperitoneally, 100 ug/kg, 30 min after injection of bone marrow suspension, average of two tests
[2] = per os (oral gavage), 100 ug/kg, 30 min after injection of bone marrow suspension, average of two tests

| Substance | Activity % (intraperitoneally, 100 ug/kg) | Stimulation index (intraperitoneally, 100 ug/kg) | Colony count [1] | Colony count [2] | Activity % (per os, 100 ug/kg) | Stimulation index (per os, 100 ug/kg) | % stimulation (IP, 10 ug/kg) | Colony count (IP, 10 ug/kg) | % stimulation (IP, 100 ug/kg (Table 4)) | Colony count (IP, 100 ug/kg (Table 4)) | % stimulation (IP, 1000 ug/kg) | Colony count (IP, 1000 ug/kg) | % stimulation (per/os, 100 ug/kg (Table 4)) | Colony count (per/os, 100 ug/kg (Table 4)) | % stimulation (per/os, 1000 ug/kg) | Colony count (per/os, 1000 ug/kg) | % stimulation (per/os, 10 ug/kg) | Colony count (per/os, 10 ug/kg) |
| --- | --- | --- | --- | --- | --- | --- | --- | --- | --- | --- | --- | --- | --- | --- | --- | --- | --- | --- |
| H-L-Leu-L-Glu-L-Trp-OH [reference compound] | 74% | 0.7 | 7.6 ± 0.7 | 6.2 ± 0.3 | 0% | 0 |  |  |  |  |  |  |  |  |  |  |  |  |
| H-L-γ-Glu-D-Trp-L-Ile-OH | 61% | 0.6 | 6.2 ± 0.5 | 6.8 ± 0.5 | 66% | 0.7 |  |  |  |  |  |  |  |  |  |  |  |  |
| H-L-γ-Glu-L-Trp-L-Ile-OH | 73% | 0.7 | 7.5 ± 0.5 | 7.7 ± 0.6 | 75% | 0.7 |  |  |  |  |  |  |  |  |  |  |  |  |
| H-L-Trp-L-Glu-L-Ile-OH [reference compound] | 79% | 0.8 | 8.1 ± 1.0 | 5.9 ± 0.8 | 0% | 0 |  |  |  |  |  |  |  |  |  |  |  |  |
| H-L-Leu-L-γ-Glu-L-Trp-OH | 69% | 0.7 | 6.9 ± 0.6 | 6.7 ± 0.7 | 67% | 0.7 |  |  |  |  |  |  |  |  |  |  |  |  |
| H-L-Ile-D-Glu-D-Trp-OH [reference compound] |  |  |  | 5.8 ± 0.3 | 0% | 0 |  |  |  |  |  |  |  |  |  |  |  |  |
| H-L-Ile-L-Glu-L-Trp-OH [reference compound] | 80% | 0.8 | 8.2 ± 0.5 | 5.6 ± 0.5 | 0% | 0 | 82% | 9.7 ± 0.4 | 81% | 9.6 ± 0.7 | 100% | 11.8 ± 00.9 | 0% | 6.7 ± 0.5 | 0% | 6.1 ± 00.3 |  |  |
| H-L-Ile-γ-Glu-L-Trp-OH | 84% | 0.8 | 8.6 ± 0.7 | 8.6 ± 0.7 | 83% | 0.8 | 64% | 7.6 ± 0.7 | 69% | 8.2 ± 00.4 | 87% | 10.4 ± 00.6 | 70% | 8.3 ± 0.4 | 90% | 10.7 ± 00.8 | 0% | 6.9 ± 0.7 |

— patent publication US20110003751A1, “Novel Immunoregulatory Peptides, Compositions and Uses Thereof” (priority 2007, published 2011)
